Test [1] has as its system Rattus norvegicus. The test can be described thus: Compound was tested for inhibition of the rat passive cutaneous anaphylaxis (PCA) 1 hr after oral administration; >0<50. In kind it is functional. The arrangement: concentration or dose not given beside the values.
In test [2] the test system is Rattus norvegicus. In words: Compound was tested for inhibition of the rat passive cutaneous anaphylaxis (PCA) 3h after oral administration; >0<50. It counts as functional. More on the design: concentration or dose not given beside the values.

As usually defined, the Inhibition is the share of the control response that was lost under treatment.

Consider `Nc1ccc2[nH]ncc2c1`, for which the Inhibition is on record as above 0% with Rattus norvegicus [1] and 54% in the test on Rattus norvegicus [2].
Taken in the same sequence, the figures for `CC1Cc2c[nH]nc2-c2ccccc21` (stereo not drawn) were above 0% and above 0%.
Take `c1ccc2c(c1)CCCc1c[nH]nc1-2`: the Inhibition in the test on Rattus norvegicus [1] and in the test on Rattus norvegicus [2] was above 0% throughout.
In the case of `COc1cccc2c1CCc1c[nH]nc1-2`, the Inhibition was 15% in the test with Rattus norvegicus [1] and above 0% with Rattus norvegicus [2].
Taken in the same sequence, the figures for `c1ccc2c(c1)SCc1cn[nH]c1-2` were above 0% and above 0%.
Turning to `Oc1ccc2c(c1)-c1n[nH]cc1CC2`, the Inhibition with Rattus norvegicus [1] and in the test on Rattus norvegicus [2] was above 0% each time.
`c1ccc2c(c1)CCc1c[nH]nc1-2`: the Inhibition with Rattus norvegicus [1] and in the test with Rattus norvegicus [2] was above 0% in each case.
Consider `c1[nH]nc2c1CCC1c3n[nH]cc3CCC21` (stereo not drawn), for which the Inhibition in the test with Rattus norvegicus [1] was found to be 77%; in the test with Rattus norvegicus [2] it was 55%.
Taken in the same sequence, the figures for `COc1ccc2c(c1)-c1n[nH]cc1CC2` were 32% and above 0%.
Take `c1ccc2c(c1)OCc1cn[nH]c1-2`: the Inhibition in the test on Rattus norvegicus [1] and with Rattus norvegicus [2] was above 0% throughout.
With `COc1ccc2c(c1)CCc1c[nH]nc1-2`, the Inhibition in the test on Rattus norvegicus [1] and with Rattus norvegicus [2] was above 0% in each case.
In the case of `CCc1cc2c(cc1CC)-c1n[nH]cc1CC2`, the Inhibition in the test on Rattus norvegicus [1] and with Rattus norvegicus [2] was above 0% in each case.
In the case of `Oc1ccc2c(c1)CCc1c[nH]nc1-2`, the Inhibition in the test on Rattus norvegicus [1] and in the test on Rattus norvegicus [2] was above 0% each time.
In the case of `Oc1cccc2c1CCc1c[nH]nc1-2`, the Inhibition in the test with Rattus norvegicus [1] and with Rattus norvegicus [2] was above 0% each time.
